Reference: ChEMBL document CHEMBL6114946, “Development and characterization of pyridyl carboxamides as potent and highly selective Nav1.8 inhibitors” (Bioorg Med Chem Lett, 2025)
pIC50: −log10 of the molar value. ≈ marks a conversion by molar mass, not a printed value. Calls of active or inactive are those of the source. The rule behind the calls is not given here.

Columns and labels:
[1] = Apparent permeability in MDCK-MDR1 cells; format: ADME, cell-based, Canis lupus familiaris; conditions: dog
[2] = target: T1, Sodium channel protein type 10 subunit alpha (Homo sapiens, UniProt Q9Y5Y9); assay: Inhibition of Nav1.8 (unknown origin) at 10 uM by Ionflux high-throughput automated patch method
Target sequence in this assay (Q9Y5Y9 whole entry, looked up): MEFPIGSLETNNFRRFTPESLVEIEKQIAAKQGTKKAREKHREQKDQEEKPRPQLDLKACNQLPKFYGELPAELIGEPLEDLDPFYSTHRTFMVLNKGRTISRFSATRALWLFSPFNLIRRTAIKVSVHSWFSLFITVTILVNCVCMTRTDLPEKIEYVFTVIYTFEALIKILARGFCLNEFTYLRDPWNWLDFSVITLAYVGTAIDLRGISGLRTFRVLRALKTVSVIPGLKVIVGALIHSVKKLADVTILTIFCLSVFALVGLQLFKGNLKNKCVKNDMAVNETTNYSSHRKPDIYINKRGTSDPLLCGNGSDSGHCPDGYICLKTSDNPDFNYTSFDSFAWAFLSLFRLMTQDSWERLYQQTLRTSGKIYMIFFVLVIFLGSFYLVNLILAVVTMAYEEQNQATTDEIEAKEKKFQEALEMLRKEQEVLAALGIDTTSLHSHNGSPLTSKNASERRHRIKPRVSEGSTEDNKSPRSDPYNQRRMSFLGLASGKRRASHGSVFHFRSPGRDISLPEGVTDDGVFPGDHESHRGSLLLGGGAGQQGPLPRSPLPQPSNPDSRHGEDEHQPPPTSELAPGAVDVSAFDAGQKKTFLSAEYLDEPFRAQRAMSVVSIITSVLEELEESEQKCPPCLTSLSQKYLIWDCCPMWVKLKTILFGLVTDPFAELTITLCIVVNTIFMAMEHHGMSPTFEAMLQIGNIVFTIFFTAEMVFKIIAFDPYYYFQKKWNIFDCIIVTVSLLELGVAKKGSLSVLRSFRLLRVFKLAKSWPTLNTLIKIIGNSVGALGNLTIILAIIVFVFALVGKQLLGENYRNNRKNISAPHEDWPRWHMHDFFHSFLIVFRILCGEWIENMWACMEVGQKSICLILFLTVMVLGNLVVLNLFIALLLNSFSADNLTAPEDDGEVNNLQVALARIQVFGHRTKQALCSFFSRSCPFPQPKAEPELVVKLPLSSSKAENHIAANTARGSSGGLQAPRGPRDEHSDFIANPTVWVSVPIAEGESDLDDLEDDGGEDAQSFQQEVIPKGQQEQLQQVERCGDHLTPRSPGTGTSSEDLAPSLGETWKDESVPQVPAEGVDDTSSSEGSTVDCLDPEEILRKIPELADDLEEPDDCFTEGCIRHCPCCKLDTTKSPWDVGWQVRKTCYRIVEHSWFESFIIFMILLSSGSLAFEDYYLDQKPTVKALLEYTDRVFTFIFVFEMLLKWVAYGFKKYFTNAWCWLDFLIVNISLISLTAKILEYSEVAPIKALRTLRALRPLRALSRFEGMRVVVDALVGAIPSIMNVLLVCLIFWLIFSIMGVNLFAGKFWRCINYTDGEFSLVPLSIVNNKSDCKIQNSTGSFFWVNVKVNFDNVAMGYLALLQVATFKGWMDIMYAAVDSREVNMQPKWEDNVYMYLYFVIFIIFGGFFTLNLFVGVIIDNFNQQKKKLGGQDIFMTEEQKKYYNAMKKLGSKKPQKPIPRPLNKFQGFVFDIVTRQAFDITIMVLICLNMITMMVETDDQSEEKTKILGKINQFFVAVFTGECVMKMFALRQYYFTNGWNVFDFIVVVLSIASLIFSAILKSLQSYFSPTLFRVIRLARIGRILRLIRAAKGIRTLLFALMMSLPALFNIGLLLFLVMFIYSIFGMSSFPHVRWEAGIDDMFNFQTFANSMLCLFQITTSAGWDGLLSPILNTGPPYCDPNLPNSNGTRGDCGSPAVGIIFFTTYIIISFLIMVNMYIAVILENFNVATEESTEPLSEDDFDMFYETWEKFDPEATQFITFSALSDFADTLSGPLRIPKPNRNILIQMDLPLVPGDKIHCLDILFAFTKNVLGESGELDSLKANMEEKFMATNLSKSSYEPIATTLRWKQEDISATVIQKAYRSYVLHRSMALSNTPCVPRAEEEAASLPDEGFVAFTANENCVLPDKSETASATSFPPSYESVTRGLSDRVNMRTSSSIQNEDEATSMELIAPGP

[3] = target: Voltage-gated inwardly rectifying potassium channel KCNH2 (Homo sapiens, UniProt Q12809); assay: Inhibition of human ERG; format: toxicity
[4] = Efflux ratio of apparent permeability in MDCK-MDR1 cells; format: ADME, cell-based, Canis lupus familiaris; conditions: dog
[5] = Kinetic solubility of the compound in pH 7.4 phosphate buffered saline measured after 2 hrs by LC/MS analysis; format: physicochemical; conditions: read-out: Kinetic_solubility
[6] = Volume of distribution at steady state in rat at 1 mg/kg, iv; format: ADME, organism-based; conditions: in vivo, read-out: Vdss
[7] = Oral bioavailability in dog at 10 mg/kg; format: ADME, organism-based, Canis lupus familiaris; conditions: in vivo
[8] = Clearance in dog at 1 mg/kg; format: ADME, organism-based, Canis lupus familiaris; conditions: in vivo
[9] = Volume of distribution at steady state in dog at 1 mg/kg, iv; format: ADME, organism-based, Canis lupus familiaris; conditions: in vivo, read-out: Vdss
[10] = target: Sodium channel protein type 10 subunit alpha (Mus musculus, UniProt Q6QIY3); assay: Inhibition of mouse Nav1.8 with resting membrane potential at half inactivated state by PatchXpress high-throughput electrophysiology method
Chain of Sodium channel protein type 10 subunit alpha (Mus musculus, UniProt Q6QIY3) (Q6QIY3 whole entry): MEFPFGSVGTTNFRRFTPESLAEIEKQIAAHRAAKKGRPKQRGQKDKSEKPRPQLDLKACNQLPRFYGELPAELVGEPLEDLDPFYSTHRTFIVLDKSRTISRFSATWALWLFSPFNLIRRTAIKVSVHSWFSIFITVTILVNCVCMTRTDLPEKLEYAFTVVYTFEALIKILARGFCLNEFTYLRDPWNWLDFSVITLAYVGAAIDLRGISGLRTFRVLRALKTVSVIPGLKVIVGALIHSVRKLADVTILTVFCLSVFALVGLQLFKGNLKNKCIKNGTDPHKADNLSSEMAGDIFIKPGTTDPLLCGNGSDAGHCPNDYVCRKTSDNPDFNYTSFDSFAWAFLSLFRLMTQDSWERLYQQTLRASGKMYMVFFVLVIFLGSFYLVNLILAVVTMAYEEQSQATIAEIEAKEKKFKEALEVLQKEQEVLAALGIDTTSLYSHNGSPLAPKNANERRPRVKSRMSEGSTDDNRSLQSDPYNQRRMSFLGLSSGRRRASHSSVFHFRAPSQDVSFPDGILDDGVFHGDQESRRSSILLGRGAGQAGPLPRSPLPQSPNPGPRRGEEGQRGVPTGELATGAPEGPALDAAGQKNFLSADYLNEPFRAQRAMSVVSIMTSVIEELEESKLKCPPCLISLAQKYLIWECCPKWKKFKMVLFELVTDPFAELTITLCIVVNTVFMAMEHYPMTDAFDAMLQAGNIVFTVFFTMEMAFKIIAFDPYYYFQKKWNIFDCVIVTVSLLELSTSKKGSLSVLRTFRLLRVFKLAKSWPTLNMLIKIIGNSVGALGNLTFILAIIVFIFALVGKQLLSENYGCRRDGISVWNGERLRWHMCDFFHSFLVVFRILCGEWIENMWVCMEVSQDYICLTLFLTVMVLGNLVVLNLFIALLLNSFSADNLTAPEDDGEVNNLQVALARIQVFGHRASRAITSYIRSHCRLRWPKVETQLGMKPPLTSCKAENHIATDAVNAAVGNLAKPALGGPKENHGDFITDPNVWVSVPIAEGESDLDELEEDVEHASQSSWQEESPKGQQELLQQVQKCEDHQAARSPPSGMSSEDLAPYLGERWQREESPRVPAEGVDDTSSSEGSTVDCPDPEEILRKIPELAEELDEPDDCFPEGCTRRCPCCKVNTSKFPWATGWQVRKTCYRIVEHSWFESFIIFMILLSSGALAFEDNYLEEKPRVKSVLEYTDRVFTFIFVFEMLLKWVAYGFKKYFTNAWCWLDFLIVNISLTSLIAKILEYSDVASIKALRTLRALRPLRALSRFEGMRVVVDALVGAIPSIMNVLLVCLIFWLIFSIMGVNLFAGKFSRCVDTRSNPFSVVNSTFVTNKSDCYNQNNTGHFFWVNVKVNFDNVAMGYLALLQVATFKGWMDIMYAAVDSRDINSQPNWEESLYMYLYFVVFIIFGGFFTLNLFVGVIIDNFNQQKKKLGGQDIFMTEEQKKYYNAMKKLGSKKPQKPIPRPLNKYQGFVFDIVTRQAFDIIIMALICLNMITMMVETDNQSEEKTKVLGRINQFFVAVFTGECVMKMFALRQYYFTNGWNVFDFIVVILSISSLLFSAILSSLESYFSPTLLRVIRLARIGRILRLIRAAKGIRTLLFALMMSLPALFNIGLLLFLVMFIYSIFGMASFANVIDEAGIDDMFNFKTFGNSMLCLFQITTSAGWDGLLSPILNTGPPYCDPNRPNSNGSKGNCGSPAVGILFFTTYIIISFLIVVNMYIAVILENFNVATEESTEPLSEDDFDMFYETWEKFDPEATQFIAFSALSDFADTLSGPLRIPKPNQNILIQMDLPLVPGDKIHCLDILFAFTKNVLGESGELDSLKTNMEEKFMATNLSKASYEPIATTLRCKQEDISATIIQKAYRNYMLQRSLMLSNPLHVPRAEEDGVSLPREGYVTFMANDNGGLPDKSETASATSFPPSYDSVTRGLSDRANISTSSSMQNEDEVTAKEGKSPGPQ

[11] = Protein binding in human plasma assessed as unbound fraction; format: ADME, cell-free
Cytochrome P450 2C9 = Cytochrome P450 2C9 (Homo sapiens, UniProt P11712); assay: Inhibition of CYP2C9 (unknown origin) at 2 to 8 uM; format: ADME; conditions: dose 2-8 µM
Chain of Cytochrome P450 2C9 (P11712 whole entry): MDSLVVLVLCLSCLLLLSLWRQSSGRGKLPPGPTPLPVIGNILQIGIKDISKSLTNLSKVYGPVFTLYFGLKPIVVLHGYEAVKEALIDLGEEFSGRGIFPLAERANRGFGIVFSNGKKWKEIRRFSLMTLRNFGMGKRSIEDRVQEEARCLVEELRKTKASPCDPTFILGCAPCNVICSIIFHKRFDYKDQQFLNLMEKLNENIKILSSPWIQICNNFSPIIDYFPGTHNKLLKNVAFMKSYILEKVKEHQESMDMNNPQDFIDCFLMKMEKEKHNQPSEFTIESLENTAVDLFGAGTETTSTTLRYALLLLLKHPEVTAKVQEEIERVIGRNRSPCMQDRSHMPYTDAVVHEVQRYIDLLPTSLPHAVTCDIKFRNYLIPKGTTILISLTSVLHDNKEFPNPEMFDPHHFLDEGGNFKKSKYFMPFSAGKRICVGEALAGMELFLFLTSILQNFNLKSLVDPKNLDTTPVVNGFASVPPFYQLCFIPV

Cytochrome P450 3A4 = Cytochrome P450 3A4 (Homo sapiens, UniProt P08684); assay: Inhibition of CYP3A4 (unknown origin); format: ADME
Chain of Cytochrome P450 3A4 (P08684 whole entry): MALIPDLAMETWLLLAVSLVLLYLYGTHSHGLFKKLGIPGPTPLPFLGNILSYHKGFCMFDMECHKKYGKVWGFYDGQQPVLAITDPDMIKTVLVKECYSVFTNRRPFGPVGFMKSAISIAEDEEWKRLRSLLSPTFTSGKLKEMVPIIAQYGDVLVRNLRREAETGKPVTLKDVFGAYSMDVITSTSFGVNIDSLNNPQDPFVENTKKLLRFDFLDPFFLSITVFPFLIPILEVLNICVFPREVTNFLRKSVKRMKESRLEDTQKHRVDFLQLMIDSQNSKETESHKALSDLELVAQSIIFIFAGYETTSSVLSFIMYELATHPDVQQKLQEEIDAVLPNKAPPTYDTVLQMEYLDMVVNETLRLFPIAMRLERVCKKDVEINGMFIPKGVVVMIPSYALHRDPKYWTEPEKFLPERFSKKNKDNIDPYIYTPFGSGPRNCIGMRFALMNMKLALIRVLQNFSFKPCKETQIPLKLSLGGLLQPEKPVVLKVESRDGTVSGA

[12] = Clearance in rat at 1 mg/kg; format: ADME, organism-based; conditions: in vivo
[13] = target: T1, Sodium channel protein type 10 subunit alpha; assay: Inhibition of human Nav1.8 with resting membrane potential at half inactivated state by PatchXpress high-throughput electrophysiology method
Target sequence in this assay (Q9Y5Y9 whole entry): as the sequence (Q9Y5Y9 whole entry, looked up) above

Cytochrome P450 1A2 = target: T2, Cytochrome P450 1A2 (Homo sapiens, UniProt P05177); assay: Inhibition of CYP1A2 (unknown origin); format: ADME
T2 sequence (P05177 whole entry): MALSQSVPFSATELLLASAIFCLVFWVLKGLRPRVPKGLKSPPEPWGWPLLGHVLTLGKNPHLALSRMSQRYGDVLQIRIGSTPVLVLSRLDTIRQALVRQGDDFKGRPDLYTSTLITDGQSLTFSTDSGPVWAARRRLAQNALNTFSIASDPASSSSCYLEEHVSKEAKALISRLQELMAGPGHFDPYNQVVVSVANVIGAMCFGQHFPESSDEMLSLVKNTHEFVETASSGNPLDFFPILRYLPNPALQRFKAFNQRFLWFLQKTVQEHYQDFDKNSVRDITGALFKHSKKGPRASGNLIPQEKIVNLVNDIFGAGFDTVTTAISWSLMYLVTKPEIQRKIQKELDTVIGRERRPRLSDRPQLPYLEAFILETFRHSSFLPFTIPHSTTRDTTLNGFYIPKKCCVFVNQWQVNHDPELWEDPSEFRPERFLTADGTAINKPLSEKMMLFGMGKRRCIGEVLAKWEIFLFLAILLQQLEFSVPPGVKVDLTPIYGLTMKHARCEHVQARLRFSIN

[14] = Stability in human liver microsomes assessed as parent compound remaining measured after 60 mins; format: ADME, Microsome; conditions: read-out: Stability
[15] = Oral bioavailability in rat at 10 mg/kg; format: ADME, organism-based; conditions: in vivo
[16] = target: T1, Sodium channel protein type 10 subunit alpha; assay: Inhibition of human Nav1.8 with resting membrane potential by PatchXpress high-throughput electrophysiology method
Target sequence in this assay (Q9Y5Y9 whole entry): as the sequence (Q9Y5Y9 whole entry, looked up) above

[17] = target: Nav1.4 (sodium channel protein type 4 subunit alpha) (Homo sapiens, UniProt P35499); assay: Inhibition of Nav1.4 (unknown origin) at 30 uM relative to control; format: toxicity
[18] = Clearance in cynomolgus monkey at 1 mg/kg; format: ADME, organism-based, Macaca fascicularis; conditions: in vivo
[19] = target: Nav1.7 (sodium channel protein type 9 subunit alpha) (Homo sapiens, UniProt Q15858); assay: Inhibition of Nav1.7 (unknown origin) at 30 uM relative to control; format: toxicity
[20] = target: Nav1.5 (sodium channel protein type 5 subunit alpha) (Homo sapiens, UniProt Q14524); assay: Inhibition of Nav1.5 (unknown origin) at 30 uM relative to control; format: toxicity
[21] = target: Nav1.3 (sodium channel protein type 3 subunit alpha) (Homo sapiens, UniProt Q9NY46); assay: Inhibition of Nav1.3 (unknown origin) at 30 uM relative to control; format: toxicity
[22] = Volume of distribution at steady state in cynomolgus monkey at 1 mg/kg, iv; format: ADME, organism-based, Macaca fascicularis; conditions: in vivo, read-out: Vdss
[23] = Oral bioavailability in cynomolgus monkey at 10 mg/kg; format: ADME, organism-based, Macaca fascicularis; conditions: in vivo
[24] = target: Nav1.2 (sodium channel protein type 2 subunit alpha) (Homo sapiens, UniProt Q99250); assay: Inhibition of Nav1.2 (unknown origin) at 30 uM relative to control; format: toxicity
[25] = target: T1, Sodium channel protein type 10 subunit alpha; assay: Inhibition of Nav1.8 (unknown origin) over expressed in HEK cells exposed to 1st depolarizing pulse at 10 Hz train of action potential at 35 nM; format: cell-based
Target sequence in this assay (Q9Y5Y9 whole entry, looked up): as the sequence (Q9Y5Y9 whole entry, looked up) above

[26] = Ratio of drug level in rat brain to plasma at 1 mg/kg, iv measured after 60 mins; format: ADME, organism-based; conditions: read-out: BPR
[27] = Inhibition of Nav1.5 (domain 1 and 2)-Nav 1.8 (domain 3 and 4) chimera (unknown origin) with resting membrane potential at half inactivated state by PatchXpress high-throughput electrophysiology method; set-up: species or system Homo sapiens
[28] = target: Nav1.6 (sodium channel protein type 8 subunit alpha) (Homo sapiens, UniProt Q9UQD0); assay: Inhibition of Nav1.6 (unknown origin) at 30 uM relative to control; format: toxicity
[29] = target: T1, Sodium channel protein type 10 subunit alpha; assay: Inhibition of Nav1.8 (unknown origin) over expressed in HEK cells exposed to 120th depolarizing pulse at 10 Hz train of action potential at 35 nM; format: cell-based
Target sequence in this assay (Q9Y5Y9 whole entry, looked up): as the sequence (Q9Y5Y9 whole entry, looked up) above

[30] = target: Nav1.1 (sodium channel protein type 1 subunit alpha) (Homo sapiens, UniProt P35498); assay: Inhibition of Nav1.1 (unknown origin) at 30 uM relative to control; format: toxicity
[31] = Inhibition of Nav1.8 (domain 1 and 2)-Nav 1.5 (domain 3 and 4) chimera (unknown origin) with resting membrane potential at half inactivated state by PatchXpress high-throughput electrophysiology method; set-up: species or system Homo sapiens

Row | Papp [1] [×10⁻⁶ cm/s] | inhibition [2] | efflux ratio [4] | solubility kinetic at 2 h [5] [µg/mL] | Vd [6] [L/kg] | bioavailability [7] [%] | clearance [8] [mL/min/kg] | Vd [9] [L/kg] | pIC50 [10] | fraction unbound [11] | INH (Cytochrome P450 3A4) [µM] | clearance [12] [mL/min/kg] | pIC50 [13] | INH (Cytochrome P450 1A2) [µM] | remaining at 1 h [14] [%] | bioavailability [15] [%] | Structure (SMILES) | pIC50 [3] | other results
1 | 63 | Active | 0.7 | 95 (≈ 233 µM) | 1 | 100 | 11 | 3.4 | 5.51 | 0.15 | > 30 | 24 | 7.15 | 4 | 95 | 45 | COc1cc(F)ccc1Oc1cc(C(F)(F)F)ncc1C(=O)Nc1ccnnc1 | < 4.52 | inhibition (INH) (Cytochrome P450 2C9): Moderate_effect
2 | 18.1 | Active | 0.8 | 65 (≈ 139 µM) | 1.8 | 39 | 1.7 | 1.2 | 5.52 | 0.14 | > 30 | 6.1 | 7.46 | > 30 | > 95 | 80 | Cc1cc(F)ccc1Oc1ncc(C(F)(F)F)cc1C(=O)Nc1cccc([S@](C)(=N)=O)c1 | < 4.52 | pIC50 [16]: 7.28; inhibition at 30 µM [17]: < 25%; clearance [18]: 7.7 mL/min/kg; inhibition at 30 µM [19]: < 25%; inhibition at 30 µM [20]: < 25%; inhibition at 30 µM [21]: < 25%; Vd [22]: 1.9 L/kg; bioavailability [23]: 61%; inhibition at 30 µM [24]: < 25%; inhibition [25]: 33.8%; Kp at 1 h [26]: 0.6; pIC50 [27]: < 4.52; inhibition at 30 µM [28]: < 25%; inhibition [29]: 35.5%; inhibition at 30 µM [30]: < 25%; pIC50 [31]: 7.40
